Target: c-Kit kinase (Homo sapiens (Human), UniProt P10721)
Test: c-Kit biochemical assay (AlphaScreen kinase activity)
Summary of the method: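 IC50 values come from 8-point, 1:3 compound titrations measuring inhibition of peptide phosphorylation by c-Kit (commercial or His-tagged E. coli-expressed) over 1 h at room temperature, read by AlphaScreen PY30/streptavidin beads. Low-ATP version: 10 μM ATP, 100 nM biotin-(E4Y)3; high-ATP version: 100 μM ATP, 30 nM biotin-(E4Y)10.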

Chain of c-Kit kinase (P10721 26-976): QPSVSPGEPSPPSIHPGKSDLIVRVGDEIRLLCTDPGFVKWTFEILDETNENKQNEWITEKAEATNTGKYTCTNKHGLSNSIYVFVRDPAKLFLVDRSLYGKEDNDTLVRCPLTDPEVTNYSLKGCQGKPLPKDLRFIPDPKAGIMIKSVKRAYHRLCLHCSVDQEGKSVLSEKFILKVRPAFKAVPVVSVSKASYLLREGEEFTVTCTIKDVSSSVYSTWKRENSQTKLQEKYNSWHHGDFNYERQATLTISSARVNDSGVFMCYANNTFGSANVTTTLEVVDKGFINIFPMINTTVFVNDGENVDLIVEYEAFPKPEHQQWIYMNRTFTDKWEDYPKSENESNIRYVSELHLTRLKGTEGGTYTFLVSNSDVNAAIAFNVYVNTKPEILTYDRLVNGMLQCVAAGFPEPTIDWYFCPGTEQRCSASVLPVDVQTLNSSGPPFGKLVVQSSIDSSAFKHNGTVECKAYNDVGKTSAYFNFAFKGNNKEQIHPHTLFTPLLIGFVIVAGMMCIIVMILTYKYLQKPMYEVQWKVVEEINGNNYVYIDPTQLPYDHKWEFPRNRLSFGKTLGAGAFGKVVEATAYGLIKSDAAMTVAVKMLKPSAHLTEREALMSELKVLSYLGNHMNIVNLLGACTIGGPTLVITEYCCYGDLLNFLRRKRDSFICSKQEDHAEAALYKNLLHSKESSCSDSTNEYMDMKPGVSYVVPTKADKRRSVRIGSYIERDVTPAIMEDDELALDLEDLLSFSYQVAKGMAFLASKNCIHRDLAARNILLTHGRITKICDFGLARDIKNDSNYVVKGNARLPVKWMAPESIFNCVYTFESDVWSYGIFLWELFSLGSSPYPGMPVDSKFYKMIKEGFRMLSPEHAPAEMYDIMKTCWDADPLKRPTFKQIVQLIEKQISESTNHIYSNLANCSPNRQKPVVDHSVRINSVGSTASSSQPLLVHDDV

CCOc1ccc(-c2[nH]c(C3(C)CCN(c4ncnc5[nH]c(-c6ccc(N7CCOCC7)nc6)cc45)CC3)nc2C)cc1 [P-3227, 4-[5-[4-[4-[5-(4-ethoxyphenyl)-4-methyl-1H-imidazol-2-yl]-4-methyl-1-piperidyl]-7H-pyrrolo[2,3-d]pyrimidin-6-yl]-2-pyridyl]morpholine]
IC50: 0.0001 to 1 µM

COc1ccc(-c2[nH]c(C3(C)CCN(c4ncnc5[nH]c(-c6ccc(NS(C)(=O)=O)cc6)cc45)CC3)nc2C)cc1C [P-3228, N-[4-[4-[4-[5-(4-methoxy-3-methyl-phenyl)-4-methyl-1H-imidazol-2-yl]-4-methyl-1-piperidyl]-7H-pyrrolo[2,3-d]pyrimidin-6-yl]phenyl]methanesulfonamide]
IC50: 0.0001 to 1 µM

CCOc1ccc(-c2[nH]c(C3(C)CCN(c4ncnc5[nH]c(-c6ccc(C(N)=O)cc6)cc45)CC3)nc2C)cc1 [P-3229, 4-[4-[4-[5-(4-ethoxyphenyl)-4-methyl-1H-imidazol-2-yl]-4-methyl-1-piperidyl]-7H-pyrrolo[2,3-d]pyrimidin-6-yl]benzamide]
IC50: 0.0001 to 1 µM

CCOc1ccc(-c2[nH]c(C3(C)CCN(c4ncnc5[nH]c(-c6ccc(NS(C)(=O)=O)cc6)cc45)CC3)nc2C)cc1 [P-3230, N-[4-[4-[4-[5-(4-ethoxyphenyl)-4-methyl-1H-imidazol-2-yl]-4-methyl-1-piperidyl]-7H-pyrrolo[2,3-d]pyrimidin-6-yl]phenyl]methanesulfonamide]
IC50: 0.0001 to 1 µM

Cc1nc(C2(C)CCN(c3ncnc4[nH]c(-c5ccc(C(N)=O)cc5)cc34)CC2)[nH]c1-c1cccc(OC(F)F)c1 [P-3231, 4-[4-[4-[5-[3-(difluoromethoxy)phenyl]-4-methyl-1H-imidazol-2-yl]-4-methyl-1-piperidyl]-7H-pyrrolo[2,3-d]pyrimidin-6-yl]benzamide]
IC50: 0.0001 to 1 µM

Cc1nc(C2(C)CCN(c3ncnc4[nH]c(-c5ccc(NS(C)(=O)=O)cc5)cc34)CC2)[nH]c1-c1cccc(OC(F)F)c1 [P-3232, N-[4-[4-[4-[5-[3-(difluoromethoxy)phenyl]-4-methyl-1H-imidazol-2-yl]-4-methyl-1-piperidyl]-7H-pyrrolo[2,3-d]pyrimidin-6-yl]phenyl]methanesulfonamide]
IC50: 0.0001 to 1 µM

Cc1nc(C2(C)CCN(c3ncnc4[nH]c(-c5ccc(OCC(=O)O)cc5)cc34)CC2)[nH]c1-c1cccc(OC(F)F)c1 [P-3233, 2-[4-[4-[4-[5-[3-(difluoromethoxy)phenyl]-4-methyl-1H-imidazol-2-yl]-4-methyl-1-piperidyl]-7H-pyrrolo[2,3-d]pyrimidin-6-yl]phenoxy]acetic acid]
IC50: 0.0001 to 1 µM

COc1cccc(-c2[nH]c(C3(C)CCN(c4ncnc5[nH]c(-c6ccc(NS(C)(=O)=O)cc6)cc45)CC3)nc2C)c1 [P-3234, N-[4-[4-[4-[5-(3-methoxyphenyl)-4-methyl-1H-imidazol-2-yl]-4-methyl-1-piperidyl]-7H-pyrrolo[2,3-d]pyrimidin-6-yl]phenyl]methanesulfonamide]
IC50: 0.0001 to 1 µM

CNC(=O)c1ccc(-c2cc3c(N4CCC(C)(c5nc(C)c(-c6ccc(C(F)F)cc6)[nH]5)CC4)ncnc3[nH]2)cn1 [P-3235, 5-[4-[4-[5-[4-(difluoromethyl)phenyl]-4-methyl-1H-imidazol-2-yl]-4-methyl-1-piperidyl]-7H-pyrrolo[2,3-d]pyrimidin-6-yl]-N-methyl-pyridine-2-carboxamide]
IC50: 0.0001 to 1 µM

CNC(=O)c1ccc(-c2cc3c(N4CCC(C)(c5nc(C)c(-c6cccc(OC(F)F)c6)[nH]5)CC4)ncnc3[nH]2)cn1 [P-3236, 5-[4-[4-[5-[3-(difluoromethoxy)phenyl]-4-methyl-1H-imidazol-2-yl]-4-methyl-1-piperidyl]-7H-pyrrolo[2,3-d]pyrimidin-6-yl]-N-methyl-pyridine-2-carb oxamide]
IC50: 0.0001 to 1 µM

Cc1nc(C2(C)CCN(c3ncnc4[nH]c(-c5ccc(N6CCOCC6)nc5)cc34)CC2)[nH]c1-c1ccc(C(F)F)cc1 [P-3237, 4-[5-[4-[4-[5-[4-(difluoromethyl)phenyl]-4-methyl-1H-imidazol-2-yl]-4-methyl-1-piperidyl]-7H-pyrrolo[2,3-d]pyrimidin-6-yl]-2-pyridyl]morpholine]
IC50: 0.0001 to 1 µM

Cc1nc(C2(C)CCN(c3ncnc4[nH]c(-c5ccc(N6CCOCC6)nc5)cc34)CC2)[nH]c1-c1cccc(OC(F)F)c1 [P-3238, 4-[5-[4-[4-[5-[3-(difluoromethoxy)phenyl]-4-methyl-1H-imidazol-2-yl]-4-methyl-1-piperidyl]-7H-pyrrolo[2,3-d]pyrimidin-6-yl]-2-pyridyl]morpholine]
IC50: 0.0001 to 1 µM

Cc1nc(C2(C)CCN(c3ncnc4[nH]c(-c5ccc(C(N)=O)cc5)cc34)CC2)[nH]c1-c1ccc(C(F)F)cc1 [P-3239, 4-[4-[4-[5-[4-(difluoromethyl)phenyl]-4-methyl-1H-imidazol-2-yl]-4-methyl-1-piperidyl]-7H-pyrrolo[2,3-d]pyrimidin-6-yl]benzamide]
IC50: 0.0001 to 1 µM

Cc1nc(C2(C)CCN(c3ncnc4[nH]c(-c5ccc(OCC(=O)O)cc5)cc34)CC2)[nH]c1-c1ccc(C(F)F)cc1 [P-3240, 2-[4-[4-[4-[5-[4-(difluoromethyl)phenyl]-4-methyl-1H-imidazol-2-yl]-4-methyl-1-piperidyl]-7H-pyrrolo[2,3-d]pyrimidin-6-yl]phenoxy]acetic acid]
IC50: 0.0001 to 1 µM

Cc1nc(C2(C)CCN(c3ncnc4[nH]c(-c5ccc(OCC(=O)O)cc5)cc34)CC2)[nH]c1-c1ccc(OC(F)F)cc1 [P-3241, 2-[4-[4-[4-[5-[4-(difluoromethoxy)phenyl]-4-methyl-1H-imidazol-2-yl]-4-methyl-1-piperidyl]-7H-pyrrolo[2,3-d]pyrimidin-6-yl]phenoxy]acetic acid]
IC50: 0.0001 to 1 µM

Cc1nc(C2(C)CCN(c3ncnc4[nH]c(-c5cnn(C(F)F)c5)cc34)CC2)[nH]c1-c1ccc(OC(F)F)cc1 [P-3242, 4-[4-[5-[4-(difluoromethoxy)phenyl]-4-methyl-1H-imidazol-2-yl]-4-methyl-1-piperidyl]-6-[1-(difluoromethyl)pyrazol-4-yl]-7H-pyrrolo[2,3-d]pyrimidine]
IC50: 0.0001 to 1 µM

CCOc1ccc(-c2[nH]c(C3(C)CCN(c4ncnc5[nH]c(-c6ccc(C(N)=O)cc6)cc45)CC3)nc2C)cc1C [P-3243, 4-[4-[4-[5-(4-ethoxy-3-methyl-phenyl)-4-methyl-1H-imidazol-2-yl]-4-methyl-1-piperidyl]-7H-pyrrolo[2,3-d]pyrimidin-6-yl]benzamide]
IC50: 0.0001 to 1 µM

CCOc1ccc(-c2[nH]c(C3(C)CCN(c4ncnc5[nH]c(-c6ccc(OCC(=O)O)cc6)cc45)CC3)nc2C)cc1C [P-3244, 2-[4-[4-[4-[5-(4-ethoxy-3-methyl-phenyl)-4-methyl-1H-imidazol-2-yl]-4-methyl-1-piperidyl]-7H-pyrrolo[2,3-d]pyrimidin-6-yl]phenoxy]acetic acid]
IC50: 0.0001 to 1 µM

CCOc1ccc(-c2[nH]c(C3(C)CCN(c4ncnc5[nH]c(-c6cnn(C(F)F)c6)cc45)CC3)nc2C)cc1C [P-3245, 6-[1-(difluoromethyl)pyrazol-4-yl]-4-[4-[5-(4-ethoxy-3-methyl-phenyl)-4-methyl-1H-imidazol-2-yl]-4-methyl-1-piperidyl]-7H-pyrrolo[2,3-d]pyrimidine]
IC50: 0.0001 to 1 µM

CNC(=O)c1ccc(-c2cc3c(N4CCC(C)(c5nc(C)c(-c6ccc(OC(F)F)cc6)[nH]5)CC4)ncnc3[nH]2)cn1 [P-3246, 5-[4-[4-[5-[4-(difluoromethoxy)phenyl]-4-methyl-1H-imidazol-2-yl]-4-methyl-1-piperidyl]-7H-pyrrolo[2,3-d]pyrimidin-6-yl]-N-methyl-pyridine-2-carb oxamide]
IC50: 0.0001 to 1 µM

CCOc1ccc(-c2[nH]c(C3(C)CCN(c4ncnc5[nH]c(-c6ccc(C(=O)NC)nc6)cc45)CC3)nc2C)cc1C [P-3247, 5-[4-[4-[5-(4-ethoxy-3-methyl-phenyl)-4-methyl-1H-imidazol-2-yl]-4-methyl-1-piperidyl]-7H-pyrrolo[2,3-d]pyrimidin-6-yl]-N-methyl-pyridine-2-carb oxamide]
IC50: 0.0001 to 1 µM

Cc1nc(C2(C)CCN(c3ncnc4[nH]c(-c5ccc(N6CCOCC6)nc5)cc34)CC2)[nH]c1-c1ccc(OC(F)F)cc1 [P-3248, 4-[5-[4-[4-[5-[4-(difluoromethoxy)phenyl]-4-methyl-1H-imidazol-2-yl]-4-methyl-1-piperidyl]-7H-pyrrolo[2,3-d]pyrimidin-6-yl]-2-pyridyl]morpholine]
IC50: 0.0001 to 1 µM

CCOc1ccc(-c2[nH]c(C3(C)CCN(c4ncnc5[nH]c(-c6ccc(N7CCOCC7)nc6)cc45)CC3)nc2C)cc1C [P-3249, 4-[5-[4-[4-[5-(4-ethoxy-3-methyl-phenyl)-4-methyl-1H-imidazol-2-yl]-4-methyl-1-piperidyl]-7H-pyrrolo[2,3-d]pyrimidin-6-yl]-2-pyridyl]morpholine]
IC50: 0.0001 to 1 µM
